Assay: Solubility and room temperature stability of M4N in modified cyclodextrin / PEG formulations (visual inspection)
Assay type: physicochemical
Procedure: A 100 mL solution of 40% HP-β-CD for use as a solubilizing agent and/or excipient was made as follows: 65 mL of WFI were placed in a glass beaker containing a stir bar. The beaker was placed on a magnetic plate, and the stir bar was set to stir at medium speed. About forty (40) grams of HP-β-CD were added slowly to the stirring WFI, using a spatula to direct the HP-β-CD to the center of the beaker so as to prevent HP-β-CD crystals from sticking to the beaker wall. The HP-β-CD solution was stirred for about 24 hr or until the HP-β-CD was dissolved completely upon visual inspection. The resulting solution measured about 93 mL. About 7 mL of WFI was added to this resulting solution to obtain 100 mL, producing a final solution of about 40% HP-β-CD. The final solution was stirred for about 1 hr, stored at room temperature, and was protected from light. This method of making the modified cyclodextrin solution may be scaled up or down to obtain the desired volume or concentration. Other concentrations or other modified cyclodextrin solutions may be similarly made, for example, by substituting HP-β-CD with other modified cyclodextrins, adjusted for the appropriate concentrations in the process described above.
A 10 mL solution of M4N at a concentration of about 10 mg/mL in 40% HP-β-CD was made as follows. About 10 mL of the 40% HP-β-CD solution were added to a glass beaker containing a stir bar. The beaker was placed on a magnetic plate and the stir bar was set to stir at medium speed. About […] of M4N were slowly added to the 40% HP-β-CD in the center of the beaker with the aid of a spatula. The M4N/40% HP-β-CD mixture was stirred for 2 hr or until all M4N was uniformly suspended without any clumps being present. The M4N/40% HP-β-CD mixture was optionally heated at 80° C. for about 30 min. (or longer if a larger volume of solution was desired, for example, 1 hr at 80° C. for 100 mL of the M4N/HP-β-CD mixture), or longer as needed to ensure complete dissolution of M4N. […] The final M4N/40% HP-β-CD solution was stored at room temperature and was kept protected from light. This process may be scaled up or down to obtain the requisite volume or concentration of M4N. Formulations containing M4N in other cyclodextrin solutions may be similarly made, such as, for example, by substituting HP-β-CD in the process described above with other cyclodextrins.
A 100 mL solution of M4N at a concentration of about 25 mg/mL in PEG 300 was made as follows. About 100 mL of PEG 300 were added to a glass beaker containing a stir bar. The beaker was placed on a magnetic plate and the stir bar was set to stir at medium speed. About 2.5 g of M4N were slowly added to the PEG 300 in the center of the beaker with the aid of a spatula to prevent M4N from sticking to the beaker wall. The M4N/PEG 300 mixture was stirred for 24 hr or until all M4N had dissolved or was uniformly suspended without any clumps being present. The M4N/PEG 300 mixture was optionally heated at about 60° C. for about 30 min. (or longer if a larger volume of solution was desired, for example, 1 hr at 60° C. for 500 mL of the M4N/PEG 300 mixture), or longer as needed to ensure complete dissolution of M4N. […] If crystals formed, the M4N/PEG 300 solution could be heated again at 60° C. for about 1 hr, with stirring, on a hot magnetic plate until all M4N was dissolved back in solution. The final M4N/PEG 300 solution was stored at room temperature and was kept protected from light. This process may be scaled up or down to obtain the requisite volume or concentration of M4N. Formulations containing M4N in other PEGs may be similarly made, such as, for example, by substituting PEG 300 in the process described above with PEG 400 or PEG 400 monolaurate. […]

## COc1ccc(C[C@@H](C)[C@@H](C)Cc2ccc(OC)c(OC)c2)cc1OC [Formulation M4N, meso-1,4-bis(3,4-dimethoxyphenyl)-2,3-dimethylbutane]
1.50% β-CD, M4N 1 mg/mL, 90°
  Dissolution After Heating at X ° C.: N at 90°
1.50% β-CD, M4N 10 mg/mL, 90°
  Dissolution After Heating at X ° C.: N at 90°
5% HP-β-CD, 12.5% PEG 300 (v/v), M4N 3.13 mg/mL
  Stability at Room Temperature: <7 days
5% HP-β-CD, 12.5% PEG 300 (v/v), M4N 3.13 mg/mL, 60°
  Dissolution After Heating at X ° C.: Y at 60°
5% γ-CD, M4N 1 mg/mL, 90°
  Dissolution After Heating at X ° C.: N at 90°
6.7% HP-β-CD, 16.7% PEG 300 (v/v), M4N 4.17 mg/mL
  Stability at Room Temperature: >7 days
6.7% HP-β-CD, 16.7% PEG 300 (v/v), M4N 4.17 mg/mL, 60°
  Dissolution After Heating at X ° C.: Y at 60°
10% HP-β-CD, 25% PEG 300 (v/v), M4N 6.25 mg/mL
  Stability at Room Temperature: >7 days
10% HP-β-CD, 25% PEG 300 (v/v), M4N 6.25 mg/mL, 60°
  Dissolution After Heating at X ° C.: Y at 60°
10% HP-β-CD, 77% PEG 300 (v/v), M4N 19.3 mg/mL, 60°
  Dissolution After Heating at X ° C.: Y at 60°
12.5% HP-β-CD, 50% PEG 300 (v/v), M4N 12.5 mg/mL
  Stability at Room Temperature: <1 days
12.5% HP-β-CD, 50% PEG 300 (v/v), M4N 12.5 mg/mL, 60°
  Dissolution After Heating at X ° C.: Y at 60°
13% HP-β-CD, 67% PEG 300 (v/v), M4N 16.7 mg/mL, 60°
  Dissolution After Heating at X ° C.: Y at 60°
15% HP-β-CD, 50% PEG 300 (v/v), M4N 12.5 mg/mL
  Stability at Room Temperature: <7 days
15% HP-β-CD, 50% PEG 300 (v/v), M4N 12.5 mg/mL, 60°
  Dissolution After Heating at X ° C.: Y at 60°
15% α-CD, M4N 10 mg/mL, 90°
  Dissolution After Heating at X ° C.: N at 90°
15% α-CD, M4N 50 mg/mL, 90°
  Dissolution After Heating at X ° C.: N at 90°
15% α-CD, M4N 100 mg/mL, 90°
  Dissolution After Heating at X ° C.: N at 90°
20% HP-β-CD, 50% PEG 300 (v/v), M4N 12.5 mg/mL
  Stability at Room Temperature: >7 days
20% HP-β-CD, 50% PEG 300 (v/v), M4N 12.5 mg/mL, 60°
  Dissolution After Heating at X ° C.: Y at 60°
20% HP-β-CD, M4N 1 mg/mL
  Stability at Room Temperature: >7 days
20% HP-β-CD, M4N 1 mg/mL, 90°
  Dissolution After Heating at X ° C.: Y at 90°
20% HP-β-CD, M4N 10 mg/mL, 90°
  Dissolution After Heating at X ° C.: N at 90°
23% HP-β-CD, 43 PEG 300 (v/v), M4N 12.9 mg/mL
  Stability at Room Temperature: >7 days
23% HP-β-CD, 43 PEG 300 (v/v), M4N 12.9 mg/mL, 60°
  Dissolution After Heating at X ° C.: Y at 60°
27% HP-β-CD, 33% PEG 300 (v/v), M4N 13.3 mg/mL
  Stability at Room Temperature: >7 days
27% HP-β-CD, 33% PEG 300 (v/v), M4N 13.3 mg/mL, 60°
  Dissolution After Heating at X ° C.: Y at 60°
27% HP-β-CD, 33% PEG 400 (v/v), M4N 13.3 mg/mL
  Stability at Room Temperature: >7 days
30% HP-β-CD, 25% PEG 400 (v/v), M4N 12.5 mg/mL
  Stability at Room Temperature: >7 days
30% HP-β-CD, 25% PEG 400 (v/v), M4N 12.5 mg/mL, 60°
  Dissolution After Heating at X ° C.: Y at 60°
30% HP-β-CD, M4N 1 mg/mL
  Stability at Room Temperature: >7 days
30% HP-β-CD, M4N 1 mg/mL, 90°
  Dissolution After Heating at X ° C.: Y at 90°
30% HP-β-CD, M4N 10 mg/mL
  Stability at Room Temperature: <3 days
30% HP-β-CD, M4N 10 mg/mL, 90°
  Dissolution After Heating at X ° C.: Y at 90°
30% HP-β-CD, M4N 20 mg/mL, 90°
  Dissolution After Heating at X ° C.: N at 90°
30% HP-β-CD, M4N 50 mg/mL, 90°
  Dissolution After Heating at X ° C.: N at 90°
30% HP-β-CD, M4N 100 mg/mL, 90°
  Dissolution After Heating at X ° C.: N at 90°
32% HP-β-CD, 20% PEG 400 (v/v), M4N 10 mg/mL
  Stability at Room Temperature: >7 days
32% HP-β-CD, 20% PEG 400 (v/v), M4N 10 mg/mL, 60°
  Dissolution After Heating at X ° C.: Y at 60°
40% HP-β-CD, 1% PVP (w/v), M4N 1 mg/mL
  Dissolution After Heating at X ° C.: N
40% HP-β-CD, 1% PVP (w/v), M4N 10 mg/mL
  Dissolution After Heating at X ° C.: N
40% HP-β-CD, 2.5% PG (v/v), M4N 1 mg/mL, 80°
  Dissolution After Heating at X ° C.: N at 80°
40% HP-β-CD, 2.5% PG (v/v), M4N 10 mg/mL, 80°
  Dissolution After Heating at X ° C.: N at 80°
40% HP-β-CD, M4N 1 mg/mL
  Stability at Room Temperature: >7 days
40% HP-β-CD, M4N 1 mg/mL, 80°
  Dissolution After Heating at X ° C.: Y at 80°
40% HP-β-CD, M4N 10 mg/mL
  Stability at Room Temperature: >7 days
40% HP-β-CD, M4N 10 mg/mL, 80°
  Dissolution After Heating at X ° C.: Y at 80°
40% HP-β-CD, M4N 12 mg/mL, 80°
  Dissolution After Heating at X ° C.: N at 80°
40% HP-β-CD, M4N 14 mg/mL, 80°
  Dissolution After Heating at X ° C.: N at 80°
40% HP-β-CD, M4N 16 mg/mL, 80°
  Dissolution After Heating at X ° C.: N at 80°
40% HP-β-CD, M4N 20 mg/mL, 80°
  Dissolution After Heating at X ° C.: N at 80°
40% HP-β-CD, M4N 50 mg/mL, 80°
  Dissolution After Heating at X ° C.: N at 80°
40% HP-β-CD, M4N 100 mg/mL, 80°
  Dissolution After Heating at X ° C.: N at 80°
50% HP-β-CD in saline, M4N 10 mg/mL
  Stability at Room Temperature: >7 days
50% HP-β-CD in saline, M4N 10 mg/mL, 90°
  Dissolution After Heating at X ° C.: Y at 90°
50% HP-β-CD, 1.25% PVP (w/v), M4N 1 mg/mL
  Stability at Room Temperature: <3 days
50% HP-β-CD, 1.25% PVP (w/v), M4N 1 mg/mL, 90°
  Dissolution After Heating at X ° C.: Y at 90°
50% HP-β-CD, 1.25% PVP (w/v), M4N 10 mg/mL
  Dissolution After Heating at X ° C.: N
50% HP-β-CD, 1.25% PVP (w/v), M4N 50 mg/mL
  Dissolution After Heating at X ° C.: N
50% HP-β-CD, M4N 1 mg/mL
  Stability at Room Temperature: >7 days
50% HP-β-CD, M4N 1 mg/mL, 90°
  Dissolution After Heating at X ° C.: Y at 90°
50% HP-β-CD, M4N 10 mg/mL
  Stability at Room Temperature: >7 days
50% HP-β-CD, M4N 10 mg/mL, 90°
  Dissolution After Heating at X ° C.: Y at 90°
50% HP-β-CD, M4N 20 mg/mL, 90°
  Dissolution After Heating at X ° C.: N at 90°
50% HP-β-CD, M4N 50 mg/mL, 90°
  Dissolution After Heating at X ° C.: N at 90°
50% HP-β-CD, M4N 100 mg/mL, 90°
  Dissolution After Heating at X ° C.: N at 90°
M4N 1 mg/mL and 10 mg/mL in 40% HP-β-CD
  remained in solution after cooling: greater than 7 days

Source: patent US20080096967A1, “Formulations for Injection of Catecholic Butanes, Including Ndga Compounds, Into Animals” (priority 2005, published 2008)
